From BindingDB's records for doi:10.1016/s0960-894x(98)00542-3 (University of Tokyo, 1998)

Molecular target: Chitinase (Trichoderma)
Test: Compound was evaluated for inhibitory activity against Trichoderma Chitinase

| IC50 | Structure (SMILES) |
| --- | --- |
| 80 nM | CC(=O)NC(CO)C(OC(CO)CO)OC1C(CO)OC(OC2C(O)C3N=C(N(C)C)OC3C2CO)C(NC(C)=O)C1O (centres undefined) |
| 7.53 nM | CC(=O)NC(/C=N/NC(=O)CCCCCNC(=O)CCCCC1SC[C@@H]2NC(=O)N[C@H]12)C(OC(/C=N/NC(=O)CCCCCNC(=O)CCCCC1SC[C@@H]2NC(=O)N[C@H]12)CO)OC1C(CO)OC(OC2C(O)C3N=C(N(C)C)OC3C2CO)C(NC(C)=O)C1O (some centres undefined) |
| 41 nM | CC(=O)NC(/C=N/NC(=O)CCCCCNC(=O)CCCCC1SC[C@H]2NC(=O)N[C@@H]12)C(OC(CO)CO)OC1C(CO)OC(OC2C(O)C3N=C(N(C)C)OC3C2CO)C(NC(C)=O)C1O (some centres undefined) |
| 41.1 nM | CC(=O)NC(/C=N/NC(=O)CCCCCNC(=O)CCCCC1SC[C@H]2NC(=O)N[C@@H]12)C(OC(C=O)CO)OC1C(CO)OC(OC2C(O)C3N=C(N(C)C)OC3C2CO)C(NC(C)=O)C1O (some centres undefined) |
